Measured values: ChEMBL document CHEMBL1201862, “PubChem BioAssay data set” (2004)
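Values below derive from 48-hour exposures of cells grown in 96-well plates, with endpoints linearly interpolated between the two concentrations bracketing the appropriate inhibition level. GI50 = concentration required for 50% inhibition of growth.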 Active and inactive are the calls of the source. Cut-off read from the data, not from the text of the source: active = GI50 up to about 1.1 µM and inactive = higher.

Experiments:
Test in all cases: growth of human tumour cells (NCI), 48 h
U-251 = system: U-251
SF-295 = system: SF-295
Malme-3M = system: Malme-3M
UACC-257 = system: UACC-257
HCT-116 = system: HCT-116
SNB-75 = system: SNB-75
SR = system: SR
MDA-MB-435 = system: MDA-MB-435
M14 = system: M14
HCT-15 = system: HCT-15
786-0 = system: 786-0
MCF7 = system: MCF7
A549 = system: A549
KM12 = system: KM12
COLO 205 = system: COLO 205
TK-10 = system: TK-10
HL-60 = system: HL-60
BT-549 = system: BT-549
SK-MEL-5 = system: SK-MEL-5
KM-20L2 = system: KM-20L2

Measured: GI50

COc1ccc2c(c1)c1nn(CCN(C)C)c3ccc4c(=O)n(CCN(C)C)c(=O)n2c4c13
active: U-251 < 0.01 µM | SF-295 < 0.01 µM | Malme-3M 0.0904 µM | UACC-257 0.208 µM | HCT-116 < 0.01 µM | SNB-75 < 0.01 µM | SR < 0.01 µM | MDA-MB-435 < 0.019 µM | M14 0.105 µM | 786-0 < 0.01 µM | MCF7 < 0.0158 µM | A549 < 0.01 µM | KM12 < 0.0142 µM | COLO 205 < 0.0143 µM | TK-10 0.0649 µM | HL-60 0.042 µM | BT-549 0.946 µM | SK-MEL-5 0.198 µM
< 0.01 µM: HCT-15

CCOc1ccc(/N=C\c2cc(OC)c(OC)c(OC)c2)cc1
inactive: U-251 > 100 µM | SF-295 > 100 µM | Malme-3M > 100 µM | UACC-257 > 100 µM | HCT-116 > 100 µM | SNB-75 32.4 µM | M14 > 100 µM | 786-0 > 100 µM | A549 > 100 µM | KM12 > 100 µM | TK-10 > 100 µM | HL-60 > 100 µM | KM-20L2 > 100 µM | SK-MEL-5 > 100 µM
32.4 µM: HCT-15

COc1cc(/C=C/C(=O)c2sc(Nc3ccccc3)nc2C)ccc1O
84.1 µM: HCT-15
inactive: U-251 > 100 µM | SF-295 38.2 µM | Malme-3M > 100 µM | UACC-257 > 100 µM | SNB-75 23.5 µM | 786-0 > 100 µM | A549 71.8 µM | KM12 > 100 µM | COLO 205 > 100 µM | TK-10 > 100 µM | HL-60 44.2 µM | KM-20L2 > 100 µM | SK-MEL-5 38.4 µM

COc1c2ccccc2c(OC)c2nc(C)ccc12
inactive: U-251 42.5 µM | SF-295 > 100 µM | Malme-3M > 93.5 µM | UACC-257 > 77.3 µM | HCT-116 > 80.2 µM | SNB-75 > 100 µM | SR 30.8 µM | MDA-MB-435 > 100 µM | M14 > 100 µM | 786-0 51.9 µM | MCF7 > 74 µM | A549 > 100 µM | KM12 > 100 µM | COLO 205 56.1 µM | TK-10 > 100 µM | HL-60 26.8 µM | BT-549 > 79.1 µM | SK-MEL-5 71.4 µM
41.3 µM: HCT-15

O=C(N/C(=C\c1ccc(F)cc1)c1nc2ccccc2[nH]1)c1ccccc1
inactive: U-251 > 100 µM | Malme-3M > 100 µM | UACC-257 > 100 µM | HCT-116 > 100 µM | SNB-75 56 µM | M14 > 100 µM | 786-0 > 100 µM | A549 > 100 µM | KM12 > 100 µM | COLO 205 > 100 µM | TK-10 > 100 µM | KM-20L2 > 100 µM | SK-MEL-5 > 100 µM
> 100 µM: HCT-15

COc1ccc(C(=O)C(C(=O)C(=O)Nc2nccs2)c2ccc(OC)cc2)cc1 (configuration not stated)
> 100 µM: HCT-15
inactive: U-251 > 100 µM | Malme-3M > 100 µM | UACC-257 > 100 µM | HCT-116 > 100 µM | SNB-75 73.6 µM | M14 > 100 µM | 786-0 > 100 µM | A549 > 100 µM | KM12 > 100 µM | COLO 205 > 100 µM | TK-10 > 100 µM | KM-20L2 > 100 µM | SK-MEL-5 > 100 µM

CC1=C(C(=O)Nc2cc(F)c(F)cc2F)C(c2ccc3c(c2)OCO3)C(C(=O)Nc2cc(F)c(F)cc2F)=C(C)N1
inactive: U-251 27.2 µM | SF-295 21.9 µM | Malme-3M 23.3 µM | UACC-257 25.9 µM | SNB-75 13.1 µM | M14 24.2 µM | 786-0 18.3 µM | A549 22.6 µM | KM12 19.2 µM | COLO 205 21.8 µM | TK-10 23.9 µM | HL-60 13.8 µM | KM-20L2 22.3 µM | SK-MEL-5 19.4 µM

O=C(CCC(=O)Nc1cccc(C(F)(F)F)c1)CC(=O)c1ccc2ccccc2c1
> 100 µM: HCT-15
inactive: U-251 > 100 µM | SF-295 > 100 µM | Malme-3M > 100 µM | UACC-257 > 100 µM | HCT-116 > 100 µM | M14 > 100 µM | 786-0 > 100 µM | A549 > 100 µM | KM12 > 100 µM | COLO 205 > 100 µM | TK-10 > 100 µM | HL-60 > 100 µM | KM-20L2 > 100 µM | SK-MEL-5 > 100 µM

CSC(CC(=O)O)C(=O)O (configuration not stated)
inactive: U-251 > 100 µM | SF-295 > 100 µM | Malme-3M > 100 µM | UACC-257 > 100 µM | HCT-116 > 100 µM | SNB-75 > 100 µM | SR > 100 µM | MDA-MB-435 > 100 µM | M14 > 100 µM | 786-0 > 100 µM | MCF7 > 100 µM | A549 > 100 µM | KM12 > 100 µM | COLO 205 > 100 µM | TK-10 > 100 µM | HL-60 > 100 µM | BT-549 > 100 µM | SK-MEL-5 > 100 µM
> 100 µM: HCT-15

C#CCCCC(=O)N(C(=O)C[S+]([O-])CC)c1ccccc1 (configuration not stated)
inactive: U-251 > 100 µM | SF-295 > 100 µM | Malme-3M > 100 µM | UACC-257 > 100 µM | HCT-116 > 100 µM | SNB-75 > 100 µM | SR > 100 µM | MDA-MB-435 > 100 µM | M14 > 100 µM | 786-0 > 100 µM | MCF7 > 100 µM | A549 > 100 µM | KM12 > 100 µM | COLO 205 > 100 µM | TK-10 > 100 µM | HL-60 > 100 µM | BT-549 > 100 µM | SK-MEL-5 > 100 µM
> 100 µM: HCT-15

Cn1c(-c2ccccc2)cc2c3ccsc3c3ccsc3c21
29.2 µM: HCT-15
inactive: U-251 > 100 µM | SF-295 > 100 µM | Malme-3M > 100 µM | UACC-257 > 100 µM | HCT-116 > 100 µM | SNB-75 > 100 µM | SR 39.1 µM | MDA-MB-435 > 100 µM | M14 > 100 µM | 786-0 79.3 µM | MCF7 4.75 µM | A549 > 100 µM | KM12 16.1 µM | COLO 205 > 100 µM | TK-10 21.3 µM | HL-60 > 100 µM | BT-549 > 100 µM | SK-MEL-5 > 100 µM

COC(=O)C1CC23CCCN4CCC5(c6ccccc6N(C=O)C15CC2)C43 (configuration not stated)
> 100 µM: HCT-15
inactive: U-251 > 100 µM | SF-295 > 100 µM | Malme-3M > 100 µM | UACC-257 > 100 µM | HCT-116 > 100 µM | SNB-75 > 100 µM | SR > 100 µM | MDA-MB-435 > 100 µM | M14 > 100 µM | 786-0 > 100 µM | MCF7 > 100 µM | A549 > 100 µM | KM12 > 100 µM | COLO 205 > 100 µM | TK-10 > 100 µM | HL-60 > 100 µM | BT-549 > 100 µM | SK-MEL-5 > 100 µM

Cc1c(/N=N/c2ccc(Cl)cc2)c(-c2ccccc2)n(C2OC(CO)C(O)C(O)C2O)c(=S)c1C#N (configuration not stated)
17.1 µM: HCT-15
inactive: U-251 12.7 µM | SF-295 24.9 µM | Malme-3M 25.5 µM | UACC-257 22.1 µM | HCT-116 14.3 µM | SNB-75 18.7 µM | SR 20.6 µM | MDA-MB-435 10.5 µM | M14 17.4 µM | 786-0 20.2 µM | MCF7 15.2 µM | A549 17.3 µM | KM12 16.8 µM | COLO 205 21.2 µM | TK-10 21.2 µM | HL-60 32.6 µM | BT-549 16 µM | SK-MEL-5 13.1 µM

C=C(C)C(=O)O[C@H]1CC2(CO)O[C@@H]2CC/C(COC(C)=O)=C/C2OC(=O)C(=C)[C@@H]21 (some centres not stated)
inactive: U-251 > 100 µM | SF-295 > 100 µM | Malme-3M 23.4 µM | UACC-257 20 µM | HCT-116 18.2 µM | SNB-75 59.7 µM | SR 16.9 µM | MDA-MB-435 31.8 µM | M14 21 µM | 786-0 20.2 µM | MCF7 11.4 µM | A549 > 100 µM | KM12 > 85.3 µM | COLO 205 18.2 µM | TK-10 25.4 µM | HL-60 8.67 µM | BT-549 21.8 µM | SK-MEL-5 28.3 µM
26.2 µM: HCT-15

COc1ccc(C2Cc3cc(OC)c(OC)c(OC)c3C2)cc1 (configuration not stated)
38.6 µM: HCT-15
inactive: U-251 73.5 µM | SF-295 41.1 µM | Malme-3M 22.8 µM | UACC-257 23.2 µM | HCT-116 41 µM | SNB-75 24.2 µM | M14 35.6 µM | 786-0 61.4 µM | A549 22 µM | KM12 23 µM | COLO 205 66.7 µM | TK-10 30.3 µM | KM-20L2 49.8 µM | SK-MEL-5 16.3 µM

S=C=NCc1ccccc1 [BENZYL ISOTHIOCYANATE]
inactive: U-251 3.07 µM | SF-295 4.82 µM | Malme-3M 3.1 µM | UACC-257 3.15 µM | SNB-75 4.27 µM | MDA-MB-435 2.16 µM | M14 1.67 µM | MCF7 3.23 µM | A549 4.49 µM | COLO 205 1.51 µM | TK-10 4.37 µM | HL-60 1.86 µM | BT-549 2.32 µM | SK-MEL-5 2.81 µM
active: HCT-116 0.604 µM | SR 0.794 µM | 786-0 0.422 µM | KM12 0.895 µM
3.36 µM: HCT-15
